We go through two compounds from US20250115894A1, “Three-dimensional model of exposed microbial membranes at gas-liquid interface and preparation method thereof” (priority 2023, published 2025).

Structures can show the parent of a compound that is named as a salt.

Series [1] deals with Recombinant Escherichia coli strains with the rec A genetic pathway. Description: Fluorescent signal of rec A recombinant strains exposed to dimethyl sulfate solution, immobilized versus not immobilized. The conditions noted are these: 50 mg/L solution of dimethyl sulfate. In kind it is cell-based.
Series [2] deals with 29 recombinant Escherichia coli strains carrying plasmids with different genetic pathways. Description: In-situ gaseous exposure genotoxicity detection with hydrogel beads containing immobilized recombinant Escherichia coli strains. It is filed as cell-based. The text has this:
Embodiment 5: Immobilization of 29 recombinant Escherichia coli strains carrying plasmids with different genetic pathways by hydrogel beads for genotoxicity detection of pollutants, including DNA damage, DNA repair, and oxidative stress: • (1) The nutrient in the core was a modified M9 medium, including MgCl2, CaCl2), NaCl, NH4Cl, Tris-HCl (pH-7.4) buffer, and glucose, to ensure the continued survival of the recombinant Escherichia coli strains when exposed at the air-liquid interface. • (2) The hydrogel beads containing immobilized 29 recombinant Escherichia coli strains, were assembled in a specially designed gaseous exposure system. Different concentrations (ranging from 20 to 500 mg/m^3) of gaseous methanesulfonic acid methyl ester were introduced into the exposure system for simultaneous exposure. […] In summary, a rapid analysis of the genotoxicity fingerprint of gaseous methanesulfonic acid methyl ester was conducted from the perspective of in-situ exposure.

Setting [3] is: 20 to 500 mg/m^3, as exposure concentration increased.

Turning to `COS(=O)(=O)OC` [dimethyl sulfate], the “Fluorescent signals of rec A strains immobilized in hydrogel beads compared to not immobilized” value in series [1] is on record as “stronger fluorescent signals”.
Turning to `COS(C)(=O)=O` [methanesulfonic acid methyl ester], in series [2] (20 to 500 mg/m^3), the “Ina A gene expression (SOS response)” value is recorded as “downregulation”, the “pol B gene pathway expression (DNA damage/repair)” value is reported as “significant upregulation”, the “rec A gene pathway expression (DNA damage/repair)” value is “significant upregulation” and the “rec N gene pathway expression (DNA damage/repair)” value is “significant upregulation”. Moreover, in series [2] (20 to 500 mg/m^3), the “sox R gene expression (SOS response)” value is recorded as “downregulation”. In addition, in series [2] (setting [3]), the “Kat G gene expression (oxidative stress)” value is recorded as “significant upregulation” and the “ahp C gene expression (oxidative stress)” value is on record as “significant upregulation”.
